For this series, the target named is T1, SFRP-1 (Homo sapiens, UniProt Q8N474).
T1 sequence (Q8N474 32-314): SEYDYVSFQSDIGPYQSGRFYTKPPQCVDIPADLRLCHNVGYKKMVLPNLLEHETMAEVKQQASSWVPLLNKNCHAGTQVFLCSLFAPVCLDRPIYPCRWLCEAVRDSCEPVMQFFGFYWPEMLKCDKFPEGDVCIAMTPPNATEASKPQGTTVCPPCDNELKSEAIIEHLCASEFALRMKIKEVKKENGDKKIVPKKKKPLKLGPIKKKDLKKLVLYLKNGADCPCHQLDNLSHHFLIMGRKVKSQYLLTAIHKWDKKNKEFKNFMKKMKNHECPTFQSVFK
The series is described as follows: Cell-based assay for in vitro measurement of SFRP-1/SARP2 antagonist activity (U2OS cells co-transfected with 16x TCF-tk-Luciferase reporter, Wnt and hSFRP-1).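 As to all read-outs here: U2OS cells co-transfected with a TCF-tk luciferase reporter, a Wnt vector, hSFRP-1 or empty vector and CMV-βgal, luciferase luminescence read in cell lysates alongside βgal activity.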 To be noted: for fold induction at 15 µM / fold induction at 20 µM: U2OS; for Fold Induction with SFRP-1: Conc 15 μM. In general terms: Reporter assays use an easily measured gene product as a stand-in for the process of interest.

The mark [1] stands for this setting: read-out: Fold Induction with SFRP-1, Conc 15 μM, with SFRP-1, fold induction over SFRP-1 control, single dose.
Setting [2] is: read-out: Fold Induction without SFRP-1, Conc 15 μM, without SFRP-1, single dose.
[3] abbreviates: with SFRP-1, fold induction over SFRP-1 control, single dose.
Where [4] appears, read: read-out: Fold Induction with SFRP-1, Conc 20 μM, with SFRP-1, fold induction over SFRP-1 control, single dose.
Setting [5] is: read-out: Fold Induction without SFRP-1, Conc 20 μM, without SFRP-1, single dose.

Like-named read-outs stand apart in the source and are kept apart here.

Take `COc1ccc(S(=O)(=O)c2ccccc2)cc1S(=O)(=O)NCCc1c[nH]cn1` [Example 236, N-[2-(1H-imidazol-4-yl)ethyl]-2-methoxy-5-(phenylsulfonyl)benzenesulfonamide]: the fold induction at 15 µM was determined as 1.2 under setting [1] and 1 under setting [2].

Take `COc1ccc(S(=O)(=O)c2ccccc2)cc1S(=O)(=O)NCCN1CCOCC1` [Example 237, 2-methoxy-N-(2-morpholin-4-ylethyl)-5-(phenylsulfonyl)benzenesulfonamide]: the “Fold Induction with SFRP-1” value under setting [3] is on record as 1.4 fold. For the same compound, the fold induction at 15 µM runs as follows: under setting [1], 1.1; under setting [2], 0.9.

As for `COCCCNS(=O)(=O)c1cc(S(=O)(=O)c2ccccc2)ccc1OC` [Example 238, 2-methoxy-N-(3-methoxypropyl)-5-(phenylsulfonyl)benzenesulfonamide], the fold induction at 15 µM is, setting by setting: under setting [1], 1.3; under setting [2], 0.9.

Take `COc1ccc(S(=O)(=O)c2ccccc2)cc1S(=O)(=O)NCCCN(C)C` [Example 239, N-[3-(dimethylamino)propyl]-2-methoxy-5-(phenylsulfonyl)benzenesulfonamide]: the fold induction at 15 µM under setting [1] stood at 1.2 and the fold induction at 15 µM under setting [2] came out at 1.

As for `COCCNS(=O)(=O)c1cc(S(=O)(=O)c2ccccc2)ccc1OC` [Example 240, 2-methoxy-N-(2-methoxyethyl)-5-(phenylsulfonyl)benzenesulfonamide], the fold induction at 15 µM by setting is: under setting [1], 1.4; under setting [2], 0.9.

`CCN(CC)CCCNS(=O)(=O)c1cc(S(=O)(=O)c2ccccc2)ccc1OC` [Example 241, N-[3-(diethylamino)propyl]-2-methoxy-5-(phenylsulfonyl)benzenesulfonamide]: the fold induction at 15 µM stood at 1.8 under setting [1] and 1.1 under setting [2].

`COc1ccc(S(=O)(=O)c2ccccc2)cc1S(=O)(=O)NCCCn1ccnc1` [Example 242, N-[3-(1H-imidazol-1-yl)propyl]-2-methoxy-5-(phenylsulfonyl)benzenesulfonamide]: the fold induction at 15 µM runs as follows: under setting [1], 2.3; under setting [2], 1.2.

In the case of `COc1ccc(S(=O)(=O)c2ccccc2)cc1S(=O)(=O)NCCCN1CCCC1` [Example 243, 2-methoxy-5-(phenylsulfonyl)-N-(3-pyrrolidin-1-ylpropyl)benzenesulfonamide], the fold induction at 15 µM is 2.4 under setting [1] and 1.9 under setting [2].

`Cc1ccc(S(=O)(=O)c2ccccc2)cc1S(=O)(=O)NCCCc1ccccc1` [Example 244, 2-methyl-N-(3-phenylpropyl)-5-(phenylsulfonyl)benzenesulfonamide]: the fold induction at 15 µM was 1.3 under setting [1] and 1.1 under setting [2].

Regarding `CCc1ccc(S(=O)(=O)c2ccccc2)cc1S(=O)(=O)NCCCc1ccccc1` [Example 245, 2-ethyl-N-(3-phenylpropyl)-5-(phenylsulfonyl)benzenesulfonamide], the fold induction at 15 µM under setting [1] was found to be 1.9 and the fold induction at 15 µM under setting [2] was 1.2.

As to `Cc1ccc(S(=O)(=O)c2ccccc2)cc1S(=O)(=O)NC1Cc2ccccc2C1` [Example 246, N-2,3-dihydro-1H-inden-2-yl-2-methyl-5-(phenylsulfonyl)benzenesulfonamide], the fold induction at 20 µM reads like this: under setting [4], 2.2; under setting [5], 0.8.

Regarding `Cc1ccc(S(=O)(=O)c2ccccc2)cc1S(=O)(=O)N[C@H]1C[C@@H]1c1ccccc1` [Example 247, 2-methyl-N-[(1S,2R)-2-phenylcyclopropyl]-5-(phenylsulfonyl)benzenesulfonamide], the fold induction at 20 µM runs as follows: under setting [4], 1.7; under setting [5], 0.9.

Turning to `Cc1ccc(S(=O)(=O)c2ccccc2)cc1S(=O)(=O)NC[C@H](C)c1ccccc1` [Example 248, 2-methyl-N-[(2R)-2-phenylpropyl]-5-(phenylsulfonyl)benzenesulfonamide], the fold induction at 20 µM was 2.8 under setting [4] and 0.9 under setting [5].

As for `Cc1ccc(S(=O)(=O)c2ccc(F)cc2)cc1S(=O)(=O)NC1Cc2ccccc2C1` [Example 249, N-2,3-dihydro-1H-inden-2-yl-5-[(4-fluorophenyl)sulfonyl]-2-methylbenzenesulfonamide], the fold induction at 20 µM is, setting by setting: under setting [4], 1.9; under setting [5], 0.8.

In the case of `Cc1ccc(S(=O)(=O)c2ccc(F)cc2)cc1S(=O)(=O)N[C@H]1C[C@@H]1c1ccccc1` [Example 250, 5-[(4-fluorophenyl)sulfonyl]-2-methyl-N-[(1S,2R)-2-phenylcyclopropyl]benzenesulfonamide], the fold induction at 20 µM by setting is: under setting [4], 1.4; under setting [5], 0.9.

In the case of `Cc1ccc(S(=O)(=O)c2ccc(F)cc2)cc1S(=O)(=O)NC[C@H](C)c1ccccc1` [Example 251, 5-[(4-fluorophenyl)sulfonyl]-2-methyl-N-[(2R)-2-phenylpropyl]benzenesulfonamide], the fold induction at 20 µM under setting [4] worked out at 3 and the fold induction at 20 µM under setting [5] turned out to be 0.8.

As to `Cc1ccc(S(=O)(=O)c2ccc(C)c(S(=O)(=O)NC3Cc4ccccc4C3)c2)cc1` [Example 252, N-2,3-dihydro-1H-inden-2-yl-2-methyl-5-[(4-methylphenyl)sulfonyl]benzenesulfonamide], the fold induction at 20 µM under setting [4] is 2.6 and the fold induction at 20 µM under setting [5] came out at 1.

Turning to `Cc1ccc(S(=O)(=O)c2ccc(C)c(S(=O)(=O)N[C@H]3C[C@@H]3c3ccccc3)c2)cc1` [Example 253, 2-methyl-5-[(4-methylphenyl)sulfonyl]-N-[(1S,2R)-2-phenylcyclopropyl]benzenesulfonamide], the fold induction at 20 µM runs as follows: under setting [4], 1.4; under setting [5], 0.9.

For `Cc1ccc(S(=O)(=O)c2ccc(C)c(S(=O)(=O)NC[C@H](C)c3ccccc3)c2)cc1` [Example 254, 2-methyl-5-[(4-methylphenyl)sulfonyl]-N-[(2R)-2-phenylpropyl]benzenesulfonamide], the fold induction at 20 µM worked out at 3 under setting [4] and 1 under setting [5].

`Cc1ccc(S(=O)(=O)c2ccc(Cl)cc2)cc1S(=O)(=O)NC1Cc2ccccc2C1` [Example 255, 5-[(4-chlorophenyl)sulfonyl]-N-2,3-dihydro-1H-inden-2-yl-2-methylbenzenesulfonamide]: the fold induction at 20 µM was 2.6 under setting [4] and 1.1 under setting [5].

Regarding `Cc1ccc(S(=O)(=O)c2ccc(Cl)cc2)cc1S(=O)(=O)N[C@H]1C[C@@H]1c1ccccc1` [Example 256, 5-[(4-chlorophenyl)sulfonyl]-2-methyl-N-[(1S,2R)-2-phenylcyclopropyl]benzenesulfonamide], the fold induction at 20 µM under setting [4] was 1.2 and the fold induction at 20 µM under setting [5] is 1.

Consider `Cc1ccc(S(=O)(=O)c2ccc(Cl)cc2)cc1S(=O)(=O)NC[C@H](C)c1ccccc1` [Example 257, 5-[(4-chlorophenyl)sulfonyl]-2-methyl-N-[(2R)-2-phenylpropyl]benzenesulfonamide], for which the fold induction at 20 µM reads like this: under setting [4], 2.4; under setting [5], 1.

On to `O=S(=O)(NC1Cc2ccccc2C1)c1cccc(S(=O)(=O)c2ccccc2)c1` [Example 258, N-2,3-dihydro-1H-inden-2-yl-3-(phenylsulfonyl)benzenesulfonamide], for which the fold induction at 20 µM under setting [4] worked out at 1.2 and the fold induction at 20 µM under setting [5] turned out to be 1.

Take `O=S(=O)(N[C@H]1C[C@@H]1c1ccccc1)c1cccc(S(=O)(=O)c2ccccc2)c1` [Example 259, N-[(1S,2R)-2-phenylcyclopropyl]-3-(phenylsulfonyl)benzenesulfonamide]: the fold induction at 20 µM under setting [4] stood at 1 and the fold induction at 20 µM under setting [5] amounted to 1.1.

On to `C[C@@H](CNS(=O)(=O)c1cccc(S(=O)(=O)c2ccccc2)c1)c1ccccc1` [Example 260, N-[(2R)-2-phenylpropyl]-3-(phenylsulfonyl)benzenesulfonamide], for which the fold induction at 20 µM by setting is: under setting [4], 1.2; under setting [5], 1.

`Cc1ccc(S(=O)(=O)c2ccc(F)cc2)cc1S(=O)(=O)NC[C@@H](C)c1ccccc1` [Example 261, 5-[(4-fluorophenyl)sulfonyl]-2-methyl-N-[(2S)-2-phenylpropyl]benzenesulfonamide]: the fold induction at 15 µM under setting [1] was determined as 1.4 and the fold induction at 15 µM under setting [2] was determined as 0.9.

On to `Cc1ccc(S(=O)(=O)c2ccccc2)cc1S(=O)(=O)NC[C@@H](C)c1ccccc1` [Example 262, 2-methyl-N-[(2S)-2-phenylpropyl]-5-(phenylsulfonyl)benzenesulfonamide], for which the fold induction at 15 µM by setting is: under setting [1], 1.6; under setting [2], 1.1.

For the compound `C[C@H](CNS(=O)(=O)c1cccc(S(=O)(=O)c2ccccc2)c1)c1ccccc1` [Example 263, N-[(2S)-2-phenylpropyl]-3-(phenylsulfonyl)benzenesulfonamide], the fold induction at 15 µM reads like this: under setting [1], 0.8; under setting [2], 1.1.

For `Cc1ccc(S(=O)(=O)c2ccc(C)c(S(=O)(=O)NC[C@@H](C)c3ccccc3)c2)cc1` [Example 264, 2-methyl-5-[(4-methylphenyl)sulfonyl]-N-[(2S)-2-phenylpropyl]benzenesulfonamide], under setting [3], the “Fold Induction with SFRP-1” value was found to be 1.7 fold. Also, the fold induction at 15 µM under setting [1] is 1.1 and the fold induction at 15 µM under setting [2] stood at 0.9.

The record behind these values is patent US20060276464A1, “Diarylsulfone sulfonamides and use thereof” (Wyeth, priority 2005, published 2006).
